Where no end group is shown, it is not given here. [ ]: non-standard residue; d: D form. Nva = CCC[C@H](N)C(=O)O
What was measured:
Type in all cases: in vivo, mouse
[1] = tested on: D2.mdx mice; assay: H&E staining, damaged areas of muscle
Description: (§1) D2.mdx mice were treated with ALY688 at two different dosages; high dose (HD; 15 mg/kg body weight/day) or low dose (LD; 3 mg/kg body weight/day) dissolved in saline. A separate group of mice were treated with saline alone (VEH, vehicle). Treatment was provided via subscapular subcutaneous injections from 7 days of age to 28-30 days. […] At 28-30 days of age, mice were anaesthetized with isoflurane vaporized in medical air (21% oxygen) at a 2 L/min flow rate. Due to tissue limitations in limb muscle, certain measures were performed separately in tibialis anterior and quadriceps across several phases of breeding. […]
Samples collected were cut into 8 µm thick serial cross sections with a cryostat (Thermo Fisher Scientific; Kalamazoo, MI, United States;) maintained at −20° C. on Fisherbrand Superfrost Plus slides (Thermo Fisher Scientific). […] Centralized nuclei, a marker of regenerating fibres, was analyzed by selecting five evenly spaced images throughout the muscle and averaging the result. Areas of damage (fibres with fragmented sarcoplasm and immune cell infiltration) were expressed as a percentage of the entire muscle section. Images were taken using EVOS M7000 imager (Thermo Fisher Scientific) using 20× magnification and analyzed using ImageJ (http://imagej.nih.gov/ij/). […] These images were then analyzed with ImageJ for minimal Feret's diameter as an index of muscle atrophy.

[2] = tested on: D2.mdx mice; assay: Mitochondrial calcium retention capacity; conditions: between groups
Description: as §1
This assay was measured spectrofluorometrically (QuantaMaster 80, HORIBA Scientific) in a cuvette with 300 μL assay buffer containing 1 μM Calcium Green-5N (Invitrogen), 2 μM thapsigargin, 5 μM blebbistatin, and 40 μM EGTA while maintained at 37° C. with continuous stirring. 5 mM glutamate, 2 mM malate, 5 mM ADP and 20 mM creatine were added to the assay buffer and minimum fluorescence was recorded. 4 nmol pulses of CaCl2 were added until the mitochondrial permeability transition pore (mPTP) opening was observed as an increase in fluorescence corresponding to net mitochondrial calcium release, at which point saturating pulses of CaCl2 were used to establish maximum fluorescence. […]

[3] = tested on: D2.mdx mice; assay: In-vitro diaphragm force
Description: as §1
A silk suture was attached to the central tendons and the ribs and secured in a bath with oxygenated Ringers solution containing (in mM) 121 NaCl, 5 KCl, 1.8 CaCl2, 0.5 MgCl2, 0.4 NaHPO4, 24 NaHCO3, 5.5 glucose and 0.1 EDTA; pH 7.3 (95% O2/5% CO2) maintained at 25° C. with ribs secured to the force transducer with an s-hook and central tendon to the lever arm. […] After the force-frequency protocol was assessed, a 5 minute rest period was provided before a fatiguing protocol was performed (70 Hz for 350 ms every 2 seconds for 5 minutes). Recovery from fatigue was assessed at 5-, 10- and 15-minutes post fatigue at the frequency that elicited maximum force in the force-frequency protocol. […]

[dN]IP[Nva]LY[dS]FA[dS]-NH2 [ALY688]
damaged areas (H&E) ([1]; diaphragm, all D2.mdx groups (VEH, LD, HD)): 3.7-to-3.9 fold change vs WT
damaged areas (H&E) ([1]; tibialis anterior, all three D2.mdx groups): 17.2-to-22.6 fold increase vs WT
mitochondrial calcium retention capacity [2]: no differences between groups
muscle force production, change ([3]; diaphragm strips, both doses): −2.3% to −43.0
recovery from fatigue, change ([3]; diaphragm, high dose, printed range also covers quadriceps low dose): −5.3% to −50.9
